Experimental data taken from US10463681B2, “Combination therapy for skin disorders” (M. Alphabet 1, LLC, priority 2010, dated 2019).

What was measured:
Assay type in all cases: in vivo, human
[1] = tested on: inflammatory and nodular lesions and comedones (acne in patients); assay: Investigator Global Assessment (IGA) score of the appearance of inflammatory and nodular lesions and comedones; conditions: score of 1 to 10, 10 indicating the most improvement
Method: (§1) Thirty-five patients (13-55 years of age) were enrolled in a placebo-controlled study. Twenty-seven patients were treated with oral administration of a capsule containing the ingredients of Formula 1 and eight patients were treated with a placebo capsule containing only doxycycline hyclate (50 mg). Patients received Formula 1 or placebo twice daily for twelve weeks. The number of comedones (“blackheads”) and nodular and inflammatory lesions (>2 mm in diameter) were counted on the face of each patient at baseline and at two weeks, six weeks and twelve weeks post-treatment.
Next, an Investigator Global Assessment (IGA) score measuring the improvement of the appearance of inflammatory and nodular lesions and comedones was determined for each patient at baseline and 2 weeks and 6 weeks post-treatment. For this assessment the investigators were asked to evaluate whether their patient's lesions and comedones improved using a score of 1 to 10 with 10 indicating the most improvement.

[2] = tested on: porphyrins, a measure of bacteria in pores; assay: Visia complexion analysis: average number of porphyrins
Method: Thirty-five patients (13-55 years of age) were enrolled in a placebo-controlled study. Twenty-seven patients were treated with oral administration of a capsule containing the ingredients of Formula 1 and eight patients were treated with a placebo capsule containing only doxycycline hyclate (50 mg). Patients received Formula 1 or placebo twice daily for twelve weeks. The number of comedones (“blackheads”) and nodular and inflammatory lesions (>2 mm in diameter) were counted on the face of each patient at baseline and at two weeks, six weeks and twelve weeks post-treatment. […] Lastly, the Visia™ complexion analysis system was used to assess the average number of porphyrins, a measure of bacteria in pores, in each patient.

[3] = tested on: patients; assay: Untoward effects in the placebo-controlled patient study; conditions: twice daily for twelve weeks, oral capsule
Method: as §1

[4] = tested on: comedones and nodular and inflammatory lesions (acne in patients); assay: Placebo-controlled study in acne patients: counts of comedones and nodular and inflammatory lesions on the face
Method: as §1
The results are shown as the change at baseline and the percent change from baseline for each outcome measure after twelve weeks of treatment. Data are reported as mean values (±standard error of the mean, SEM) for each outcome measure. The results for ‘total lesions’ includes both comedones and inflammatory and nodular lesions.

Structure (SMILES): C[C@H]1c2cccc(O)c2C(O)=C2C(=O)[C@]3(O)C(O)=C(C(N)=O)C(=O)[C@@H](N(C)C)[C@@H]3[C@@H](O)[C@@H]21 [Placebo, doxycycline hyclate]
- IGA score, baseline ([1]; baseline): 2.3
- IGA score, six weeks ([1]; six weeks): 2.5
- Por (BL), average number of porphyrins ([2]; baseline): 31.6
- Por (W2), average number of porphyrins ([2]; week 2): 25.8
- Por (W6), average number of porphyrins ([2]; week 6): 15.7
- Por (W12), average number of porphyrins ([2]; week 12): 35.5
- serious untoward effects [3]: No serious untoward effects
- Total Comedones, Change from baseline, % ([4]; 12 weeks vs baseline): −27.4%
- Total Inflammatory and Nodular Lesions, Change from baseline, % ([4]; 12 weeks vs baseline): −50.9%
- Total Lesions, Change from baseline, % ([4]; 12 weeks vs baseline): −35.6%
- reduction of the total number of lesions (comedones and inflammatory and nodular lesions) ([4]; after twelve weeks of treatment): 35.6%
- reduction of the average number of comedones at twelve weeks compared to baseline ([4]; twelve weeks vs baseline): 27.4%
- average number of comedones, week 2 ([4]; week 2): 29.0
- average number of comedones, week 6 ([4]; week 6): 11.8
